Non-standard residues stand in square brackets, D forms with d. Residues, ends and D or L forms follow the SMILES beside them. *: point of attachment. DOTA = O=C(O)CN1CCN(CC(=O)O)CCN(CC(=O)*)CCN(CC(=O)O)CC1; Bpa = N[C@@H](Cc1ccc(C(=O)c2ccccc2)cc1)C(=O)O; d2Nal = N[C@H](Cc1ccc2ccccc2c1)C(=O)O; 3Pal = N[C@@H](Cc1cccnc1)C(=O)O; Nicotinoyl = O=C(c1cccnc1)*; azaGly = NNC(=O)O; Sar = CNCC(=O)O
system: LHRH binding sites on human ovarian cancer cells (EFO-27); details: not given
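Also: Cell-associated radioactivity on confluent EFO-27 monolayers in 96-well plates, measured by microplate scintillation counting.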

EC50	SMILES
11.5 µM	N=C(N)NCCC[C@H](NC(=O)[C@@H](Cc1ccc2ccccc2c1)NC(=O)CN1CCN(CC(=O)O)CCN(CC(=O)O)CCN(CC(=O)O)CC1)C(=O)N[C@@H](Cc1c[nH]c2ccccc12)C(=O)N[C@@H](Cc1c[nH]c2ccccc12)C(=O)N[C@@H](Cc1c[nH]cn1)C(=O)N[C@H](CCCNC(=N)N)C(=O)N[C@@H](Cc1c[nH]c2ccccc12)C(=O)N[C@@H](Cc1ccc(C(=O)c2ccccc2)cc1)C(=O)N1CCC[C@H]1C(=O)NNC(N)=O [compound 3114] ({DOTA}-[d2Nal]RWWH[dR]W[Bpa]P[azaGly]-NH2)
14.2 µM	CN(CC(=O)N[C@@H](Cc1c[nH]cn1)C(=O)N[C@@H](Cc1c[nH]c2ccccc12)C(=O)N[C@@H](CO)C(=O)N[C@@H](Cc1c[nH]cn1)C(=O)N[C@H](CCCNC(N)=O)C(=O)N[C@@H](Cc1c[nH]c2ccccc12)C(=O)N[C@@H](Cc1ccc(C(=O)c2ccccc2)cc1)C(=O)N1CCC[C@H]1C(=O)NNC(N)=O)C(=O)CN1CCN(CC(=O)O)CCN(CC(=O)O)CCN(CC(=O)O)CC1 [BRU-2729]
10 µM	CN(CC(=O)N[C@@H](Cc1c[nH]cn1)C(=O)N[C@@H](Cc1c[nH]c2ccccc12)C(=O)N[C@@H](CO)C(=O)N[C@@H](Cc1c[nH]cn1)C(=O)N[C@H](CCCNC(=N)N)C(=O)N[C@@H](Cc1c[nH]c2ccccc12)C(=O)N[C@@H](Cc1cscn1)C(=O)N1CCC[C@H]1C(=O)NNC(N)=O)C(=O)CN1CCN(CC(=O)O)CCN(CC(=O)O)CCN(CC(=O)O)CC1 [BRU-2742]
3.54 µM	N=C(N)NCCC[C@@H](NC(=O)[C@H](Cc1c[nH]cn1)NC(=O)[C@H](CO)NC(=O)[C@H](Cc1c[nH]c2ccccc12)NC(=O)[C@H](Cc1c[nH]cn1)NC(=O)[C@H](Cc1ccc2ccccc2c1)NC(=O)CN1CCN(CC(=O)O)CCN(CC(=O)O)CCN(CC(=O)O)CC1)C(=O)N[C@@H](Cc1c[nH]c2ccccc12)C(=O)N[C@@H](Cc1ccc(C(=O)c2ccccc2)cc1)C(=O)N1CCC[C@H]1C(=O)NNC(N)=O [BRU-2809]
2 µM	N=C(N)NCCC[C@H](NC(=O)[C@H](Cc1ccc(C(=O)O)cc1)NC(=O)CN1CCN(CC(=O)O)CCN(CC(=O)O)CCN(CC(=O)O)CC1)C(=O)N[C@@H](Cc1c[nH]c2ccccc12)C(=O)N[C@@H](CO)C(=O)N[C@@H](Cc1c[nH]cn1)C(=O)N[C@H](CCCNC(=N)N)C(=O)N[C@@H](Cc1c[nH]c2ccccc12)C(=O)N[C@@H](Cc1ccc(C(=O)c2ccccc2)cc1)C(=O)N1CCC[C@H]1C(=O)NNC(N)=O [BRU-3092]
1.62 µM	CN(CC(=O)N[C@@H](Cc1cccnc1)C(=O)N[C@@H](Cc1c[nH]c2ccccc12)C(=O)N[C@@H](CO)C(=O)N[C@@H](Cc1c[nH]cn1)C(=O)N[C@H](CCCNC(=N)N)C(=O)N[C@@H](Cc1c[nH]c2ccccc12)C(=O)N[C@@H](Cc1ccc(C(=O)c2ccccc2)cc1)C(=O)N1CCC[C@H]1C(=O)NNC(N)=O)C(=O)CN1CCN(CC(=O)O)CCN(CC(=O)O)CCN(CC(=O)O)CC1 [BRU-2818] ({DOTA}-[Sar][3Pal]WSH[dR]W[Bpa]P[azaGly]-NH2)
≤ 0.2 µM	CNCC(=O)N[C@@H](CCCNC(=N)N)C(=O)N[C@@H](Cc1c[nH]c2ccccc12)C(=O)N[C@@H](CO)C(=O)N[C@@H](Cc1c[nH]cn1)C(=O)N[C@H](CCCNC(=N)N)C(=O)N[C@@H](Cc1c[nH]c2ccccc12)C(=O)N[C@@H](Cc1ccc(C(=O)c2ccccc2)cc1)C(=O)N1CCC[C@H]1C(=O)N1CCCCC1CNC(=O)CN1CCN(CC(=O)O)CCN(CC(=O)O)CCN(CC(=O)O)CC1 (some centres unmarked) [BRU-3102]
0.97 µM	CCNC(=O)[C@@H]1CCCN1C(=O)[C@H](Cc1ccc(C(=O)c2ccccc2)cc1)NC(=O)[C@H](Cc1c[nH]c2ccccc12)NC(=O)[C@@H](CCCNC(=N)N)NC(=O)[C@H](Cc1c[nH]cn1)NC(=O)[C@H](CO)NC(=O)[C@H](Cc1c[nH]c2ccccc12)NC(=O)[C@H](CCCNC(=N)N)NC(=O)[C@@H](Cc1ccc2ccccc2c1)NC(=O)CN1CCN(CC(=O)O)CCN(CC(=O)O)CCN(CC(=O)O)CC1 [compound 2981]
0.65 µM	CN(CC(=O)N[C@@H](Cc1c[nH]cn1)C(=O)N[C@@H](Cc1c[nH]c2ccccc12)C(=O)N[C@@H](CO)C(=O)N[C@@H](Cc1c[nH]cn1)C(=O)N[C@H](CCCNC(=N)N)C(=O)N[C@@H](Cc1c[nH]c2ccccc12)C(=O)N[C@@H](Cc1ccc(C(=O)c2ccccc2)cc1)C(=O)N1CCC[C@H]1C(=O)NNC(N)=O)C(=O)c1ccc(CNC(=O)CN2CCN(CC(=O)O)CCN(CC(=O)O)CCN(CC(=O)O)CC2)cc1 [compound 2727]
22.6 µM	CN(CC(=O)N[C@@H](Cc1c[nH]cn1)C(=O)N[C@@H](Cc1c[nH]c2ccccc12)C(=O)N[C@@H](CO)C(=O)N[C@@H](Cc1c[nH]cn1)C(=O)N[C@H](CCCCNC(=O)c1cccnc1)C(=O)N[C@@H](Cc1c[nH]c2ccccc12)C(=O)N[C@@H](Cc1ccc(O)cc1)C(=O)N1CCC[C@H]1C(=O)NNC(N)=O)C(=O)CN1CCN(CC(=O)O)CCN(CC(=O)O)CCN(CC(=O)O)CC1 [compound 2674] ({DOTA}-[Sar]HWSH[dK](Nicotinoyl)WYP[azaGly]-NH2)
1.61 µM	CN(CC(=O)N[C@@H](Cc1c[nH]cn1)C(=O)N[C@@H](Cc1c[nH]c2ccccc12)C(=O)N[C@@H](CO)C(=O)N[C@@H](Cc1c[nH]cn1)C(=O)N[C@H](CCCNC(=N)N)C(=O)N[C@@H](Cc1c[nH]c2ccccc12)C(=O)N[C@@H](Cc1ccc(Oc2ccc(O)cc2)cc1)C(=O)N1CCC[C@H]1C(=O)NNC(N)=O)C(=O)CN1CCN(CC(=O)O)CCN(CC(=O)O)CCN(CC(=O)O)CC1 [BRU-2823]
0.5 µM	CN(NC(=O)[C@@H]1CCCN1C(=O)[C@H](Cc1ccc(C(=O)c2ccccc2)cc1)NC(=O)[C@H](Cc1c[nH]c2ccccc12)NC(=O)[C@@H](CCCNC(=N)N)NC(=O)[C@H](Cc1c[nH]cn1)NC(=O)[C@H](CO)NC(=O)[C@H](Cc1c[nH]c2ccccc12)NC(=O)[C@H](CCCNC(=N)N)NC(=O)[C@@H](Cc1ccc2ccccc2c1)NC(=O)CN1CCN(CC(=O)O)CCN(CC(=O)O)CCN(CC(=O)O)CC1)C(N)=O [compound 3021]
0.63 µM	CN(CC(=O)N[C@@H](Cc1c[nH]cn1)C(=O)N[C@@H](Cc1c[nH]c2ccccc12)C(=O)N[C@@H](CO)C(=O)N[C@@H](Cc1c[nH]cn1)C(=O)N[C@H](CCCNC(=N)N)C(=O)N[C@@H](Cc1c[nH]c2ccccc12)C(=O)N[C@@H](CC1CCCCC1)C(=O)N1CCC[C@H]1C(=O)NNC(N)=O)C(=O)CN1CCN(CC(=O)O)CCN(CC(=O)O)CCN(CC(=O)O)CC1 [BRU-2718]

SMILES	EC50
N=C(N)NCCC[C@H](NC(=O)[C@@H](Cc1ccc2ccccc2c1)NC(=O)CN1CCN(CC(=O)O)CCN(CC(=O)O)CCN(CC(=O)O)CC1)C(=O)N[C@@H](Cc1c[nH]c2ccccc12)C(=O)N[C@@H](CO)C(=O)N[C@@H](Cc1c[nH]cn1)C(=O)N[C@H](CCCNC(=N)N)C(=O)N[C@@H](Cc1c[nH]c2ccccc12)C(=O)N[C@@H](Cc1ccc(C(=O)c2ccccc2)cc1)C(=O)N1CCC[C@H]1C(=O)Nc1ccccc1 [compound 3006]	0.42 µM

same assay, conditions: EFO-27 cells, competition with [125I-Tyr8]BRU-2477, 90 min

SMILES	EC50
N=C(N)NCCC[C@H](NC(=O)[C@@H](Cc1ccc2ccccc2c1)NC(=O)CN1CCN(CC(=O)O)CCN(CC(=O)O)CCN(CC(=O)O)CC1)C(=O)N[C@@H](Cc1c[nH]c2ccccc12)C(=O)N[C@@H](CO)C(=O)N[C@@H](Cc1c[nH]cn1)C(=O)N[C@H](CCCNC(=N)N)C(=O)N[C@@H](Cc1c[nH]c2ccccc12)C(=O)N[C@@H](Cc1ccc(C(=O)c2ccccc2)cc1)C(=O)N1CCC[C@H]1C(=O)NCC(=O)NCCCCO [compound 2986]	1.66 µM
CN(CC(=O)N[C@@H](Cc1c[nH]cn1)C(=O)N[C@@H](Cc1c[nH]c2ccccc12)C(=O)N[C@@H](CO)C(=O)N[C@@H](Cc1c[nH]cn1)C(=O)N[C@H](CCCCNC(=O)c1cccnc1)C(=O)N[C@@H](Cc1c[nH]c2ccccc12)C(=O)N[C@@H](Cc1ccc(C(=O)c2ccccc2)cc1)C(=O)N1CCC[C@H]1C(=O)NNC(N)=O)C(=O)CN1CCN(CC(=O)O)CCN(CC(=O)O)CCN(CC(=O)O)CC1 [compound 2671] ({DOTA}-[Sar]HWSH[dK](Nicotinoyl)W[Bpa]P[azaGly]-NH2)	7.2 µM
N=C(N)NCCC[C@H](NC(=O)[C@@H](Cc1ccc2ccccc2c1)NC(=O)CN1CCN(CC(=O)O)CCN(CC(=O)O)CCN(CC(=O)O)CC1)C(=O)N[C@@H](Cc1c[nH]c2ccccc12)C(=O)N[C@@H](CO)C(=O)N[C@@H](Cc1c[nH]cn1)C(=O)N[C@H](CCCNC(=N)N)C(=O)N[C@@H](Cc1c[nH]c2ccccc12)C(=O)N[C@@H](Cc1ccc(C(=O)c2ccccc2)cc1)C(=O)N1CCC[C@H]1C(=O)NCC(=O)NCc1ccccc1 [compound 2988]	0.65 µM
N=C(N)NCCC[C@H](NC(=O)CNC(=O)[C@@H]1CCCN1C(=O)[C@H](Cc1ccc(C(=O)c2ccccc2)cc1)NC(=O)[C@H](Cc1c[nH]c2ccccc12)NC(=O)[C@@H](CCCNC(=N)N)NC(=O)[C@H](Cc1c[nH]cn1)NC(=O)[C@H](CO)NC(=O)[C@H](Cc1c[nH]c2ccccc12)NC(=O)[C@H](CCCNC(=N)N)NC(=O)[C@@H](Cc1ccc2ccccc2c1)NC(=O)CN1CCN(CC(=O)O)CCN(CC(=O)O)CCN(CC(=O)O)CC1)C(N)=O [compound 2969] ({DOTA}-[d2Nal]RWSH[dR]W[Bpa]PGR-NH2)	0.24 µM

same assay, conditions: Table 5: modifications of amino acids at positions 1 and 2; in vitro binding on EFO-27 cells

SMILES	EC50
N=C(N)NCCC[C@@H](NC(=O)[C@H](Cc1c[nH]cn1)NC(=O)[C@H](CO)NC(=O)[C@H](Cc1c[nH]c2ccccc12)NC(=O)[C@H](Cc1c[nH]cn1)NC(=O)[C@@H](Cc1ccc(O)cc1)NC(=O)CN1CCN(CC(=O)O)CCN(CC(=O)O)CCN(CC(=O)O)CC1)C(=O)N[C@@H](Cc1c[nH]c2ccccc12)C(=O)N[C@@H](Cc1ccc(C(=O)c2ccccc2)cc1)C(=O)N1CCC[C@H]1C(=O)NNC(N)=O [BRU-2870] ({DOTA}-[dY]HWSH[dR]W[Bpa]P[azaGly]-NH2)	10 µM
N=C(N)NCCC[C@H](NC(=O)[C@H]1Cc2ccccc2CN1C(=O)CNC(=O)CN1CCN(CC(=O)O)CCN(CC(=O)O)CCN(CC(=O)O)CC1)C(=O)N[C@@H](Cc1c[nH]c2ccccc12)C(=O)N[C@@H](CO)C(=O)N[C@@H](Cc1c[nH]cn1)C(=O)N[C@H](CCCNC(=N)N)C(=O)N[C@@H](Cc1c[nH]c2ccccc12)C(=O)N[C@@H](Cc1ccc(C(=O)c2ccccc2)cc1)C(=O)N1CCC[C@H]1C(=O)NNC(N)=O [BRU-3067]	0.51 µM

From patent US20120045393A1 (priority 2009, published 2012)
